# In patent publication US7247617B2, “Sixteen-member macrolide antiinfective agents” (Kosan Biosciences Incorporated, priority 2004, dated 2007):
# Key:
# [1] = system: E. faecalis; assay: Biological activity against bacterial strains: E. faecalis; assay type: cell-based, Enterococcus faecalis; conditions: strain ATCC51575
# [2] = system: S. aureus; assay: Biological activity against bacterial strains: S. aureus; assay type: cell-based, Staphylococcus aureus; design: unit not given here; conditions: for Biological Activity, S. aureus ATCC6538p: strain ATCC6538p; for Biological Activity, S. aureus ATCC14154*: strain ATCC14154, macrolide resistant strain; for Biological Activity, S. aureus ATCC29213: strain ATCC29213; for Biological Activity, S. aureus ATCC33591*: strain ATCC33591, macrolide resistant strain; for Biological Activity, S. aureus ATCCBAA-39*: strain ATCCBAA-39, macrolide resistant strain; for Biological Activity, S. aureus ATCCBAA-44*: strain ATCCBAA-44, macrolide resistant strain
# [3] = system: S. pneumoniae; assay: Biological activity against bacterial strains: S. pneumoniae; assay type: cell-based, Streptococcus pneumoniae; design: Biological Activity, S. pneumoniae ATCC6301 / Biological Activity, S. pneumoniae ATCC700671 / Biological Activity, S. pneumoniae ATCC700676* / Biological Activity, S. pneumoniae ATCC700677* / Biological Activity, S. pneumoniae ATCC700905* / Biological Activity, S. pneumoniae ATCC700906* / Biological Activity, S. pneumoniae ATCC49619: unit not given here; conditions: for Biological Activity, S. pneumoniae ATCC6301: strain ATCC6301; for Biological Activity, S. pneumoniae ATCC49619: strain ATCC49619; for Biological Activity, S. pneumoniae ATCC700671: strain ATCC700671; for Biological Activity, S. pneumoniae ATCC700676*: strain ATCC700676, macrolide resistant strain; for Biological Activity, S. pneumoniae ATCC700677*: strain ATCC700677, macrolide resistant strain; for Biological Activity, S. pneumoniae ATCC700905*: strain ATCC700905, macrolide resistant strain; for Biological Activity, S. pneumoniae ATCC700906*: strain ATCC700906, macrolide resistant strain
# [4] = system: S. epidermidis; assay: Biological activity against bacterial strains: S. epidermidis; assay type: cell-based, Staphylococcus epidermidis; conditions: strain ATCC12228
SMILES,"Biological Activity, E. faecalis ATCC51575 [1]","Biological Activity, S. aureus ATCC6538p [2]","Biological Activity, S. aureus ATCC14154* [2]","Biological Activity, S. aureus ATCC29213 [2]","Biological Activity, S. aureus ATCC33591* [2]","Biological Activity, S. aureus ATCCBAA-39* [2]","Biological Activity, S. aureus ATCCBAA-44* [2]","Biological Activity, S. pneumoniae ATCC6301 [3]","Biological Activity, S. pneumoniae ATCC49619 [3]","Biological Activity, S. pneumoniae ATCC700671 [3]","Biological Activity, S. pneumoniae ATCC700676* [3]","Biological Activity, S. pneumoniae ATCC700677* [3]","Biological Activity, S. pneumoniae ATCC700905* [3]","Biological Activity, S. pneumoniae ATCC700906* [3]","Biological Activity, S. epidermidis ATCC12228 [4]"
"CCC1OC(=O)CC(O)C(C)C(OC2OC(C)C(O)C(N(C)C)C2O)C(CC=O)CC(C)C(=NOCC#Cc2cnc3ccccc3c2)C=CC(C)=CC1CO (single isomer, unassigned) [Compound D]",>12.5,0.098,0.78,0.39,>12.5,>12.5,>12.5,0.025,0.049,0.049,0.049,>12.5,0.049,>12.5,0.20
CCC1OC(=O)CC(O)C(C)C(OC2OC(C)C(O)C(N(C)C)C2O)C(CCN2CC(C)CC(C)C2)CC(C)C(=NOCC(=O)N2CCN(c3ccccc3)CC2)C=CC(C)=CC1CO (stereo not drawn) [Compound X],>12.5,0.39,3.12,1.56,>12.5,>12.5,>12.5,0.049,0.049,0.098,1.56,>12.5,0.78,>12.5,0.78
CCC1OC(=O)CC(O)C(C)C(OC2OC(C)C(O)C(N(C)C)C2O)C(CC=O)CC(C)C(=NOCC(=O)N2CCN(c3ccccc3)CC2)C=CC(C)=CC1CO (stereo not drawn) [Compound C],>12.5,0.78,1.56,1.56,>12.5,>12.5,>12.5,0.025,0.01,0.025,0.39,6.25,0.20,>12.5,0.20
"CCC1OC(=O)CC(O)C(C)C(OC2OC(C)C(O)C(N(C)C)C2O)C(CCN2CC(C)CC(C)C2)CC(C)C(=NOCCCCOc2ccc3ncccc3c2)C=CC(C)=CC1CO (single isomer, unassigned) [Compound U]",>12.5,>12.5,>12.5,>12.5,>12.5,>12.5,>12.5,6.25,12.5,12.5,>12.5,>12.5,12.5,>12.5,>12.5
"CCC1OC(=O)CC(O)C(C)C(OC2OC(C)C(O)C(N(C)C)C2O)C(CCN2CC(C)CC(C)C2)CC(C)C(=NOCc2ccc(F)cc2)C=CC(C)=CC1COC1OC(C)C(O)C(OC)C1OC (single isomer, unassigned) [Compound Q]",>12.5,0.20,0.78,0.78,12.5,>12.5,>12.5,0.20,0.39,0.39,0.78,6.25,0.78,12.5,0.78
CCC1OC(=O)CC(O)C(C)C(OC2OC(C)C(O)C(N(C)C)C2O)C(CCN2CC(C)CC(C)C2)CC(C)C(=NOCCCOc2ccc3ncccc3c2)C=CC(C)=CC1CO (stereo not drawn) [Compound S],>12.5,>12.5,>12.5,>12.5,>12.5,>12.5,>12.5,6.25,6.25,6.25,12.5,>12.5,12.5,>12.5,>12.5
CCC1OC(=O)CC(O)C(C)C(OC2OC(C)C(O)C(N(C)C)C2O)C(CCN2CC(C)CC(C)C2)CC(C)C(=NOCc2ccc(F)cc2)C=CC(C)=CC1CO (stereo not drawn) [Compound W],>12.5,0.78,3.12,3.12,>12.5,>12.5,>12.5,0.39,0.39,0.39,0.39,>12.5,0.39,>12.5,3.12
CCC1OC(=O)CC(O)C(C)C(OC2OC(C)C(O)C(N(C)C)C2O)C(CCN2CC(C)CC(C)C2)CC(C)C(=NOCCOc2ccccc2)C=CC(C)=CC1CO (stereo not drawn) [Compound V],>12.5,0.78,6.25,6.25,>12.5,>12.5,>12.5,0.20,0.39,0.39,0.78,>12.5,0.39,>12.5,6.25
CCC1OC(=O)CC(O)C(C)C(OC2OC(C)C(O)C(N(C)C)C2O)C(CC=O)CC(C)C(=NOCCCCOc2ccc3ncccc3c2)C=CC(C)=CC1CO (stereo not drawn) [Compound B],>12.5,0.20,0.78,0.78,>12.5,>12.5,>12.5,0.025,0.01,0.025,0.025,0.39,0.025,>12.5,0.20
"CCC1OC(=O)CC(O)C(C)C(OC2OC(C)C(O)C(N(C)C)C2O)C(CCN2CC(C)CC(C)C2)CC(C)C(=NOCCCOc2ccc3ncccc3c2)C=CC(C)=CC1COC1OC(C)C(O)C(OC)C1OC (single isomer, unassigned) [Compound K]",>12.5,0.20,0.39,0.39,>12.5,>12.5,>12.5,0.01,0.098,0.025,0.049,0.049,0.20,>12.5,0.39
